Drawing on patent US20080261994A1, “CYCLOPROPANE COMPOUNDS AND PHARMACEUTICAL USE THEREOF” (Japan Tobacco Inc., priority 2003, published 2008), this text covers IC50 for 34 compounds.

A value given as a limit tells only on which side of the number the result lay.

Holding throughout (type): biochemical
The target of one assay is T1, aggrecanase-1 (Homo sapiens, UniProt O75173).
T1 sequence (O75173 213-837): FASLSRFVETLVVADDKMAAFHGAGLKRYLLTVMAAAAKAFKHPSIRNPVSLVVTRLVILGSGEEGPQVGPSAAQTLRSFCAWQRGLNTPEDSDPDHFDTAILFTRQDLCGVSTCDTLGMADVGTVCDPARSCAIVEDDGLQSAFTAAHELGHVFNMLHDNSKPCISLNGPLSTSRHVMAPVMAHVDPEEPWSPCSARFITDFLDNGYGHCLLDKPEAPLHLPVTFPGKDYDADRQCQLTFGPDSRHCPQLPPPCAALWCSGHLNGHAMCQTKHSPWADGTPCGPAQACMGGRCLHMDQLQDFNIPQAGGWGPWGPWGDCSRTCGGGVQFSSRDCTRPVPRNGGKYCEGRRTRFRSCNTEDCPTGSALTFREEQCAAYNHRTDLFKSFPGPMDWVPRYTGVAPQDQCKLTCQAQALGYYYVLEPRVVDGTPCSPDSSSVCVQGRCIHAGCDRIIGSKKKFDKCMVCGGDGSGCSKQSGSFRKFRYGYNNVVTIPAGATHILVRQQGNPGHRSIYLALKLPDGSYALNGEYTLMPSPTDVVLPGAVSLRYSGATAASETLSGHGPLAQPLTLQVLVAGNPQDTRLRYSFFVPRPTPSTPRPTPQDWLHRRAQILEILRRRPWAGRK
As to the kind of experiment: Aggrecanase-1 inhibitory action (Particle Assay, GAG release from aggrecan-containing polyacrylamide particles). To be noted: aggrecanase-1 inhibitory action; read-out: IC50 AG1 (Experimental Example 1). In short, it runs like this: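 Readout was dimethylmethylene blue absorbance (595 nm) of glycosaminoglycan liberated into supernatant, calibrated with whale chondroitin sulfate. Substrate was aggrecan in polyacrylamide particles, digested 15 h at 37° C in Tris-HCl; TC50 (μM) derived from inhibition relative to no-enzyme and no-inhibitor controls.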

The target in a further assay is T2, MMP-1 (Homo sapiens, UniProt P03956).
T2 sequence (P03956 100-469): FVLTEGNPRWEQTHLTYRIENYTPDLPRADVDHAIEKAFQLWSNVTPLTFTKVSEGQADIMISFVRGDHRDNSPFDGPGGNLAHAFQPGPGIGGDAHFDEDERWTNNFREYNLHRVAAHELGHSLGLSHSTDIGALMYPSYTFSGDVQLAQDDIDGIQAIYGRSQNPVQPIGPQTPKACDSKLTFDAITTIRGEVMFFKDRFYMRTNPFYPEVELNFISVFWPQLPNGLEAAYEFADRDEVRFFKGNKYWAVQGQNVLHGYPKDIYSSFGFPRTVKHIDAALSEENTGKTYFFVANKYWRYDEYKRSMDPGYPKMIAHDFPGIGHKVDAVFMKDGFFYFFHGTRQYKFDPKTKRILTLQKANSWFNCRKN
The experiment in a line: MMP-1 inhibitory action (Type I collagen Activity Measurement kit, FITC-labeled collagen type I). To be noted: MMP-1 inhibitory action, FITC-labeled collagen type I, 37° C. for 3 hr; read-out: IC50 MMP1 (Experimental Example 2).

Another assay has as its target T3, Recombinant Human MMP-13 (Homo sapiens, UniProt P45452).
T3 construct: purchased R&D systems 511-MM
As to the kind of experiment: MMP-13 inhibitory activity (MMP-13 specific fluorescent substrate with quencher). To be noted: Recombinant Human MMP-13, fluorescent substrate, 25° C. for 1 h; read-out: IC50 MMP13 (Experimental Example 3). The procedure, abridged:
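IC50 (μM) derived from % inhibition, normalised to wells without enzyme and without inhibitor, fluorescence read at 325/405 nm. Enzyme and compound preceded addition of the quenched 7-MCA…DPA substrate; Tris-HCl buffer, 25 °C for 1 h, acetic-acid stop.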

The IC50 is the concentration that inhibits the measured activity by half.

On to `O=C(O)C1(NS(=O)(=O)N2CCC(Oc3ccc(F)cc3)CC2)CC1c1ccccc1` (stereo not drawn) [Example 2-145], for which the IC50 on aggrecanase-1 is at least 10000 nM; on MMP-1, at least 10000 nM; at Recombinant Human MMP-13 it was at least 1000 nM.
As for `CCC1(c2ccccc2)CC1(NS(=O)(=O)c1ccc2c(c1)Cc1cc(F)ccc1-2)C(=O)O` (stereo not drawn) [Example 2-146], the values for the IC50 on aggrecanase-1, at MMP-1 and at Recombinant Human MMP-13 were below 1000 nM, at least 10000 nM and below 1000 nM, respectively.
On to `CC1(C)CC1(NS(=O)(=O)c1ccc(-c2ccc(Cl)cc2)s1)C(=O)O` (stereo not drawn) [Example 2-147], for which the IC50 at aggrecanase-1 was at least 1000 nM; at MMP-1, at least 10000 nM; on Recombinant Human MMP-13, at least 1000 nM.
On to `O=C(O)C1(NS(=O)(=O)N2CC=C(c3ccccc3)CC2)CC1c1ccccc1` (stereo not drawn) [Example 2-148], for which the IC50 is at least 1000 nM at aggrecanase-1, at least 10000 nM on MMP-1 and below 1000 nM on Recombinant Human MMP-13.
For the compound `O=C(O)C1(NS(=O)(=O)N2CC=C(c3ccc(Cl)cc3)CC2)CC1c1ccccc1` (stereo not drawn) [Example 2-149], the 50% inhibitory concentration (IC50) at aggrecanase-1 was at least 1000 nM; on MMP-1, at least 10000 nM; at Recombinant Human MMP-13, below 100 nM.
As to `O=C(O)[C@@]1(NS(=O)(=O)c2ccc(-c3ccc(Cl)cc3)s2)C[C@H]1c1cccc(Br)c1` [Example 2-150], the half-inhibitory concentration (IC50) on aggrecanase-1 is below 1000 nM; at MMP-1 it was at least 1000 nM; on Recombinant Human MMP-13, below 1000 nM.
Turning to `O=C(O)[C@]1(NS(=O)(=O)/C=C/c2ccc(Cl)cc2)C[C@@H]1c1ccccc1` [Example 2-151], the figures for the IC50 at aggrecanase-1, at MMP-1 and on Recombinant Human MMP-13 were at least 10000 nM, at least 10000 nM and at least 1000 nM, respectively.
With `O=C(O)[C@]1(NS(=O)(=O)c2ccc(-c3cc(C(F)F)on3)cc2)C[C@@H]1c1ccccc1` [Example 2-152], the values for the IC50 at aggrecanase-1, on MMP-1 and at Recombinant Human MMP-13 were below 1000 nM, at least 10000 nM and below 100 nM, respectively.
The corresponding values for `O=C(O)[C@]1(NS(=O)(=O)/C=C/c2cccc(Cl)c2)C[C@@H]1c1ccccc1` [Example 2-153] are at least 10000 nM, at least 10000 nM and at least 1000 nM.
Turning to `O=C(O)[C@]1(NS(=O)(=O)c2ccc(-c3noc4c3CCCC4)s2)C[C@@H]1c1ccccc1` [Example 2-154], the half-inhibitory concentration (IC50) at aggrecanase-1 is at least 1000 nM; at MMP-1 it was at least 10000 nM; at Recombinant Human MMP-13, below 1000 nM.
The corresponding values for `O=C(O)C1(NS(=O)(=O)N2CCN(c3ncc(Br)cn3)CC2)CC1c1ccccc1` (stereo not drawn) [Example 2-155] are at least 1000 nM, at least 10000 nM and below 1000 nM.
For `O=C(O)C1(NS(=O)(=O)N2CCn3c(cc4cc(Cl)ccc43)C2)CC1c1ccccc1` (stereo not drawn) [Example 2-156], the IC50 at aggrecanase-1 is at least 1000 nM; at MMP-1, at least 10000 nM; at Recombinant Human MMP-13 it was at least 1000 nM.
Turning to `O=C(O)C1(NS(=O)(=O)N2CCN(c3nc4ccccc4s3)CC2)CC1c1ccccc1` (stereo not drawn) [Example 2-157], the half-maximal inhibitory concentration (IC50) on aggrecanase-1 is at least 10000 nM; on MMP-1 it was at least 10000 nM; on Recombinant Human MMP-13, at least 1000 nM.
In the case of `O=C(O)C1(NS(=O)(=O)N2CCN(Cc3ccccc3)CC2)CC1c1ccccc1` (stereo not drawn) [Example 2-158], the half-inhibitory concentration (IC50) at aggrecanase-1, on MMP-1 and on Recombinant Human MMP-13 was at least 10000 nM throughout.
Consider `O=C(c1ccc(Cl)cc1)N1CCN(S(=O)(=O)NC2(C(=O)O)CC2c2ccccc2)CC1` (stereo not drawn) [Example 2-159], for which the concentration for half-maximal inhibition (IC50) on aggrecanase-1, at MMP-1 and on Recombinant Human MMP-13 was at least 10000 nM throughout.
Consider `O=C(c1cccc(Cl)c1)N1CCN(S(=O)(=O)NC2(C(=O)O)CC2c2ccccc2)CC1` (stereo not drawn) [Example 2-160], for which the half-inhibitory concentration (IC50) on aggrecanase-1, at MMP-1 and at Recombinant Human MMP-13 was at least 10000 nM each time.
In the case of `O=C(O)[C@]1(NS(=O)(=O)/C=C/c2ccc(C(F)(F)F)cc2)C[C@@H]1c1ccccc1` [Example 2-161], the IC50 on aggrecanase-1 was at least 10000 nM; on MMP-1, at least 10000 nM; at Recombinant Human MMP-13, at least 1000 nM.
For the compound `O=C(O)[C@]1(NS(=O)(=O)/C=C/c2cccc(C(F)(F)F)c2)C[C@@H]1c1ccccc1` [Example 2-162], the IC50 on aggrecanase-1, at MMP-1 and at Recombinant Human MMP-13 was at least 10000 nM in each case.
Turning to `O=C1CCCN1c1ccc(S(=O)(=O)N[C@@]2(C(=O)O)C[C@@H]2c2ccccc2)s1` [Example 2-163], the IC50 on aggrecanase-1, at MMP-1 and on Recombinant Human MMP-13 was at least 10000 nM in each case.
Take `O=C1CCCCN1c1ccc(S(=O)(=O)N[C@@]2(C(=O)O)C[C@@H]2c2ccccc2)s1` [Example 2-164]: the IC50 on aggrecanase-1, on MMP-1 and on Recombinant Human MMP-13 was at least 10000 nM in each case.
As for `Nc1ccc(S(=O)(=O)NC2(C(=O)O)CC2c2ccccc2)s1` (stereo not drawn) [Example 2-165], the values for the 50% inhibitory concentration (IC50) at aggrecanase-1, on MMP-1 and at Recombinant Human MMP-13 were at least 10000 nM, at least 10000 nM and at least 1000 nM, respectively.
Take `O=C(O)[C@]1(NS(=O)(=O)c2ccc3c(c2)CN(C2CCCCC2)C3)C[C@@H]1c1ccccc1` [Example 2-166]: the IC50 at aggrecanase-1, at MMP-1 and on Recombinant Human MMP-13 was at least 10000 nM each time.
In the case of `O=C(O)[C@@]1(NS(=O)(=O)c2ccc(-c3ccc(Cl)cc3)s2)C[C@H]1c1ccccc1Br` [Example 2-168], the IC50 was below 1000 nM at aggrecanase-1, at least 10000 nM on MMP-1 and at least 1000 nM at Recombinant Human MMP-13.
On to `O=C(O)[C@]1(NS(=O)(=O)c2ccc(-c3cc(C(F)(F)F)on3)s2)C[C@@H]1c1cccc(Br)c1` [Example 2-169], for which the concentration for half-maximal inhibition (IC50) at aggrecanase-1 is below 100 nM; on MMP-1, at least 1000 nM; on Recombinant Human MMP-13, below 100 nM.
Take `O=C(O)[C@]1(NS(=O)(=O)c2ccc(-c3ccc(Cl)cc3)s2)C[C@@H]1c1cccc([N+](=O)[O-])c1` [Example 2-170]: the IC50 on aggrecanase-1 is below 100 nM; at MMP-1 it was at least 10000 nM; at Recombinant Human MMP-13, below 100 nM.
As for `O=C(O)[C@]1(NS(=O)(=O)c2ccc(-c3cc(C(F)(F)F)no3)s2)C[C@@H]1c1ccccc1` [Example 2-171], the results for the half-maximal inhibitory concentration (IC50) on aggrecanase-1, on MMP-1 and at Recombinant Human MMP-13 were below 1000 nM, at least 10000 nM and below 1000 nM, respectively.
As to `CN1CC=C(c2ccc(S(=O)(=O)N[C@@]3(C(=O)O)C[C@@H]3c3ccccc3)s2)CC1` [Example 2-172], the half-maximal inhibitory concentration (IC50) at aggrecanase-1 was at least 10000 nM; on MMP-1, at least 10000 nM; at Recombinant Human MMP-13, at least 1000 nM.
As for `O=C(O)[C@]1(NS(=O)(=O)c2ccc(-c3ccc(Cl)cc3)s2)C[C@@H]1c1cccc(NCc2cccnc2)c1` [Example 2-173], the IC50 was below 100 nM at aggrecanase-1, at least 1000 nM at MMP-1 and below 100 nM at Recombinant Human MMP-13.
As to `Nc1cccc([C@H]2C[C@@]2(NS(=O)(=O)c2ccc(-c3ccc(Cl)cc3)s2)C(=O)O)c1` [Example 2-174], the results for the concentration for half-maximal inhibition (IC50) at aggrecanase-1, on MMP-1 and on Recombinant Human MMP-13 were below 100 nM, at least 1000 nM and below 100 nM, respectively.
As for `O=C(O)c1cccc([C@H]2C[C@@]2(NS(=O)(=O)c2ccc(-c3ccc(Cl)cc3)s2)C(=O)O)c1` [Example 2-175], the IC50 is below 100 nM on aggrecanase-1, at least 1000 nM on MMP-1 and below 1000 nM at Recombinant Human MMP-13.
For `CN(C)c1cccc([C@H]2C[C@@]2(NS(=O)(=O)c2ccc(-c3ccc(Cl)cc3)s2)C(=O)O)c1` [Example 2-176] the same measures were below 100 nM, at least 10000 nM and below 100 nM.
As to `CC(=O)N1CC=C(c2ccc(S(=O)(=O)N[C@@]3(C(=O)O)C[C@@H]3c3ccccc3)s2)CC1` [Example 2-177], the IC50 on aggrecanase-1 is at least 1000 nM; at MMP-1, at least 10000 nM; at Recombinant Human MMP-13, at least 1000 nM.
Turning to `O=C(O)[C@]1(NS(=O)(=O)c2ccc(-c3ccc(Cl)cc3)s2)C[C@@H]1c1ccccc1Br` [Example 2-178], the IC50 was below 100 nM on aggrecanase-1, at least 10000 nM at MMP-1 and below 1000 nM at Recombinant Human MMP-13.
Consider `O=C(O)CCc1ccccc1C1CC1(NS(=O)(=O)c1ccc(-c2ccc(Cl)cc2)s1)C(=O)O` (stereo not drawn) [Example 2-179], for which the IC50 is below 100 nM at aggrecanase-1, at least 10000 nM at MMP-1 and below 1000 nM on Recombinant Human MMP-13.
